Data taken from publication PMC12836451, “Cyclic Peptide–Polymer Conjugate Nanotubes for Delivery of SN‐38 in Treatment of Colorectal Cancer Model” (Advanced Healthcare Materials, 2025).
Structures can show the parent of a compound that is named as a salt. Where two headings read alike, the source gives them in different places.

Key:
[1] = test system: CT26 xenograft; settings: CT26 xenograft mice, three i.v. doses
[2] = Pharmacokinetics study in mice (plasma, LC-MS, non-compartmental); settings: non-tumor female BALB/c mice, i.v., irinotecan 15 mg kg−1 or SN-38 nanotubes 10 mg kg−1 drug, SN-38 = prodrug and hydrolysed forms combined
[3] = test system: CT26 cells; assay: MTS cell viability assay; type: cell-based, murine; settings: Mus musculus, CT26, 48 h
Description: Cells were typically grown to 70–80% confluence before passaging, and cells were not used past 20 passages total.
The wells were then treated with 20 µL of MTS reagent (Promega, CellTiter 96 AQeuous One Solution Cell Proliferation Assay) for 4 h, before UV absorbance reading on Biotek Cytation 3 Plate reader (490 nm). The relative cell viability was determined by comparison to untreated cells or cells with DMSO or EtOH at a range of concentrations.

[4] = cited from earlier work
Description: Despite significant scientific advances in recent decades, cancer remains one of the most formidable challenges for modern medicine. The rising rates of colorectal cancer (CRC) diagnoses, particularly amongst younger people, exemplify the new complexities faced. Despite efforts to promote early detection and fast onset of treatment, the prognosis for CRC remains grim, ranking as one of the deadliest malignancies worldwide.

[5] = test system: CT26 spheroids; assay: 3D spheroid growth assay; type: cell-based, murine; settings: 10 µM, control grew by over 300 µm
Description: CT26 cells were harvested and seeded in a non‐tissue culture‐treated, U‐bottom‐shaped 96‐well plates at a density of 500 cells per well (200 µL media per well), before centrifugation at 500 xG for 10 minutes. The plate incubated and the spheroids allowed to form over a period of days (typically 5–8). […] Non‐treated/Control spheroids received fresh media.

SMILES	tolerability (body weight, welfare scoring) [1]	C max [2]	IC50 ([3]; n = 3, read-out: concentration required to achieve more than 50% cell death)	reduction of potency compared to SN-38 [4]	increase of spheroid diameter over 5 days [5]	IC50 ([3]; concentrations are SN-38 concentration, n = 3, read-out: IC50)	aqueous solubility ([4]; reason for not testing in vivo)
CCc1c2c(nc3ccc(OC(=O)N4CCC(N5CCCCC5)CC4)cc13)-c1cc3c(c(=O)n1C2)COC(=O)[C@]3(O)CC [Irinotecan, irinotecan hydrochloride]	well tolerated	29.6 µM	> 10 µM	100–1000 fold	40 µm	–	–
CCc1c2c(nc3ccc(O)cc13)-c1cc3c(c(=O)n1C2)COC(=O)[C@]3(O)CC [SN-38, 7‐ethyl‐10‐hydroxycamptothecin]	–	–	–	–	–	~0.2 µM	poor aqueous solubility
